Data as given in patent US20040121307A1, “Early detection of cellular differentiation using optophoresis” (Genoptix, Inc, priority 2002, published 2004).
Where “and” joins values, the source holds several entries; their conditions need not be identical. Equal entries are not always repeated.

Assays:
Type in all cases: cell-based
[1] = test system: U937 cells; test: Experiment 3: PMA inhibition by bisindolymaleimide, escape velocity; settings: 10 ng/ml PMA only, four hours
Source text: The objective of this experiment was to test the effect of bisindolymaleimide on cells exposed to PMA. Bisindolymaleimide is a Protein Kinase C inhibitor and should block the effect of PMA on U937 cells and their escape velocities. As shown in this and prior experiments, exposure of U937 cells to PMA results in an increase in the escape velocity of the cells. Therefore, it is anticipated that addition of bisindolymaleimide will reduce or eliminate the increase in escape velocity caused by PMA. This has in fact been observed in the data shown below.
Bisindolymaleimide was tested at two concentrations: 200 ng/ml and 50 ng/ml. Samples not treated with bisindolymaleimide received an equivalent amount of the carrier, MeOH, as a control. […] The concentration of PMA tested was 10 ng/ml. Samples not receiving PMA received DMSO.
Once the flasks were prepared, they were incubated at 37° C. 5% CO2 for four hours. At the four hour timepoint, 300 μl of cells were removed from each flask and pelleted at 5000 rpm for 5 minutes. The cells were then resuspended in 6 ml PBS/1% BSA and 60 μl trypan blue.

[2] = test system: HL-60 cells; test: Cellular differentiation of HL-60, escape velocity
Source text: HL-60 is a promyelocytic leukemia cell line that retains the capacity to undergo terminal differentiation and serves as a model system to study myeloid pathways of cellular differentiation. It is known that treatment of HL-60 cells with phorbol 12-myristate 13-acetate (PMA) causes the cells to differentiate into monocytes/macrophages. In addition, it is also known that treatment of HL-60 cells with dimethylsulfoxide (DMSO) causes these same cells to undergo granulocytic differentiation.
Initial tests were performed using HL-60 cells treated with PMA. HL-60 cells were seeded at about 1-3×10^6 cells per well in six well plates. The cells were treated with 200 ng/ml PMA while the control cells were treated with ethanol (EtOH) vehicle for four hours at 37° C. After incubation for four hours the treated cells were washed with PBS and re-fed with growth media. The treated HL-60 cells were then allowed to differentiate for 72 hours in normal growth media. After the 72 hour period, the untreated control cells were collected by centrifugation, washed with PBS and pelleted for resuspension at 1.5×10^6 cells/ml in PBS/1% BSA. Treated cells were trypsinized and collected by centrifugation then washed in PBS and pelleted for resuspension at 1×10^6 cells/ml in PBS/1% BSA. The cells were the subjected to Optophoretic analysis by measuring the escape velocities of the treated and control cells. Table 23 shown below illustrates the measured escape velocities of the undifferentiated and differentiated cells at 72 hours post treatment.

[3] = test system: U937 cells; test: Experiment 2: time and concentration dependence of PMA, escape velocity; design: escape velocity, Ave.: unit not given here
Protocol: This experiment was conducted to test the effect of PMA concentration on the escape velocity of U937 cells. PMA concentrations of 10 ng/ml, 1 ng/ml, 100 pg/ml, 10 pg/ml and 1 pg/ml were tested. The control sample received EtOH and not PMA.
The PMA concentration was tested at three timepoints: 1 hour, 3 hours and 5 hours. At each timepoint, 300 μl of cells were removed from each flask. The cells were then spun for 5 minutes at 5000 rpm. The cells were then resuspended in […] PBS/1% BSA and […] of trypan blue.

[4] = test system: HL-60 cells; test: Cellular differentiation of HL-60, fast scan time course; settings: 400 ng/ml PMA, fast scan
Protocol: Fast scan analysis was also performed on HL-60 cells that were treated with PMA and DMSO. A time course evaluation of PMA treated HL-60 cells was performed with fast scan data taken at 16 hours, 24 hours, 40 hours, and 72 hours post-treatment with 400 ng/ml PMA. A control sample of HL-60 cells was also tested using EtOH as the vehicle for purposes of comparing the differentiated cells with the undifferentiated HL-60 cells. The PMA-treated and control cells were harvested and trypsinized. The samples were then resuspended in PBS/1% BSA. A set of samples was also obtained and left as pellets at 4° C. for subsequent FACS analysis.
A time course evaluation of DMSO treated HL-60 cells was performed with fast scan data taken at 16 hours, 24 hours, 40 hours, and 70 hours post-treatment with 1% DMSO. A control sample of HL-60 cells was also tested for purposes of comparing the differentiated cells with the undifferentiated HL-60 cells. The DMSO-treated and control cells were then harvested and resuspended in PBS/1% BSA. A set of samples was also obtained and left as pellets at 4° C. for subsequent FACS analysis.

[5] = test system: U937 cells; test: Experiment 1: time course dependence of PMA activation, escape velocity
Protocol: The objective of this experiment is to compare the escape velocities of U937 cells that have been treated with the phorbol ester, phorbol 12 myristate 13-acetate (PMA), to the escape velocity of untreated U937 cells. PMA activates the Protein Kinase C pathway and may cause the cells to go into rapid cell differentiation, which may be indicated by a shift in escape velocity. […] At the end of the activation period, the cells were centrifuged for 4 minutes at 10,000 rpm. The supernatant was then removed and the pellet resuspended in 1 ml PBS/1% BSA buffer. The cells were then centrifuged again and resuspended in buffer. The escape velocity and the cell size of cells from each tube were then calculated.
The time dependent effect of PMA was clearly present as can been seen in the shift of escape velocity to higher speeds over greater time periods.

[6] = test system: U937 cells; test: Separation of drug treated and untreated leukemia cells, escape velocity; settings: PMA 5 ug/mL, 6 hours
Protocol: PMA was dissolved in ethanol at a concentration of 5 mg/mL. 3 mls of U937 cells grown in RPMI 1640 media with supplements were removed from the culture flask and 1 ml was placed into each of three eppendorf tubes. Cells from the first tube were pelleted for 4 minutes at 10,000 rpm and resuspended in 250 uL PBS/1% BSA buffer for escape velocity measurements. PMA was added to the remaining two tubes of U937 cells to a final concentration of 5 ug/mL. These tubes were vortexed and placed in a 37° C. water bath for either one hour or six hours. At the end of the time point, the tube was removed, cells were pelleted and then resuspended as described above and escape velocity measurements taken.

Structure (SMILES): CCCCCCCCCCCCCC(=O)O[C@@H]1[C@@H](C)[C@@]2(O)[C@@H](C=C(CO)C[C@]3(O)C(=O)C(C)=C[C@@H]23)[C@@H]2C(C)(C)[C@]12OC(C)=O [PMA, phorbol 12 myristate 13-acetate]
- average escape velocity [1]: 15.4 μm/sec
- escape velocity, Average ([2]; HL-60 + PMA at 72 hours (differentiated), 200 ng/ml PMA for four hours): 14.0 μm/sec
- Escape Velocity, individual cell ([2]; HL-60 + PMA at 72 hours (differentiated), 200 ng/ml PMA for four hours, Cell No. 1 to 20): 14.0 μm/sec (3×) and 12.5 μm/sec (3×) and 16.5 μm/sec and 14.5 μm/sec (3×) and 13.0 μm/sec (2×) and 13.5 μm/sec (2×) and 15.5 μm/sec (2×) and 15.0 μm/sec (2×) and 16.0 μm/sec and 11.0 μm/sec
- increase in measured escape velocity as compared to the control cells ([2]; HL-60 + PMA at 72 hours, on average): about 2 μm/sec
- escape velocity, Ave. ([3]; 10 pg/ml PMA, 1 Hour Activation): 14.4
- escape velocity, Ave. ([3]; 10 pg/ml PMA, 3 Hour Activation): 14.5
- escape velocity, Ave. ([3]; 10 pg/ml PMA, 5 Hour Activation): 14.1
- escape velocity, Ave. ([3]; 100 pg/ml PMA, 1 Hour Activation): 14.4
- escape velocity, Ave. ([3]; 100 pg/ml PMA, 3 Hour Activation): 15.5
- escape velocity, Ave. ([3]; 100 pg/ml PMA, 5 Hour Activation): 16.1
- escape velocity, Ave. ([3]; 1 ng/ml PMA, 1 Hour Activation): 14.3
- escape velocity, Ave. ([3]; 1 ng/ml PMA, 3 Hour Activation): 15.1
- escape velocity, Ave. ([3]; 1 ng/ml PMA, 5 Hour Activation): 16.5
- escape velocity, Ave. ([3]; 10 ng/ml PMA, 1 Hour Activation): 14.8
- escape velocity, Ave. ([3]; 10 ng/ml PMA, 3 Hour Activation): 15.2
- escape velocity, Ave. ([3]; 10 ng/ml PMA, 5 Hour Activation): 16.2
- Optophoretic difference versus control ([3]; two lowest concentrations, 10 pg/ml and 1 pg/ml PMA): showed no Optophoretic difference
- time after treatment at which Optophoretic analysis detected cellular differentiation into monocytes/macrophages [4]: ≤ 16 h
- distribution of escape velocities ([5]; 0.01 μg/ml PMA, 6 and 9 hours post treatment (FIG. 31)): clear trend toward higher escape velocities over time
- escape velocity, Average ([5]; 1 hour of PMA activation): 15.3 μm/sec
- escape velocity, Average ([5]; 6 hours of PMA activation): 28.0 μm/sec
- escape velocity as compared to the untreated cells [6]: significantly higher escape velocity
